Test results: patent US5444042A, “Method of treatment of neurodegeneration with calpain inhibitors” (Cortex Pharmaceuticals, priority 1994, dated 1995)
Where a SMILES comes first, the peptide text is derived from it.

Columns and labels:
[1] = tested on: Calpain within platelets; experiment: Platelet membrane permeation assay, spectrin proteolysis (Examples 4A, 4B); format: cell-based, rat; details: for inhibition of Calpain within platelets: 100 μM, A23187 1 μM; for IC50: concentration at which 50% of the Calpain activation present in controls occurred
Summary of the method: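 Rat (Sprague-Dawley) platelets at 10^7 cells/ml in HEPES buffer pH 7.4, preincubated 5 min with inhibitor, then 5 min with 1 μM A23187 to activate calpain. Spectrin proteolysis assessed by SDS-PAGE and anti-spectrin immunoblot, quantified by densitometry.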

[2] = tested on: Calpain; experiment: Kapp/[I] of other irreversible Calpain Inhibitors; format: biochemical
Description: The kinetic constants of other irreversible Calpain Inhibitors include the following with Kapp /[I] in parentheses: E-64 (7500), E64-d (23000) and Z-leu-leu-tyr-CHN2 (230000). E-64 is commercially available from Sigma Chemical Co., and is shown here to be a poor inhibitor of Calpain.

[3] = biological target: T1, Calpain II (Homo sapiens, UniProt P17655); experiment: Calpain II 14C-methylated casein proteolysis (Table 1A); format: biochemical
T1 construct: from tissue; purified by a cited method
T1 sequence (P17655 1-700): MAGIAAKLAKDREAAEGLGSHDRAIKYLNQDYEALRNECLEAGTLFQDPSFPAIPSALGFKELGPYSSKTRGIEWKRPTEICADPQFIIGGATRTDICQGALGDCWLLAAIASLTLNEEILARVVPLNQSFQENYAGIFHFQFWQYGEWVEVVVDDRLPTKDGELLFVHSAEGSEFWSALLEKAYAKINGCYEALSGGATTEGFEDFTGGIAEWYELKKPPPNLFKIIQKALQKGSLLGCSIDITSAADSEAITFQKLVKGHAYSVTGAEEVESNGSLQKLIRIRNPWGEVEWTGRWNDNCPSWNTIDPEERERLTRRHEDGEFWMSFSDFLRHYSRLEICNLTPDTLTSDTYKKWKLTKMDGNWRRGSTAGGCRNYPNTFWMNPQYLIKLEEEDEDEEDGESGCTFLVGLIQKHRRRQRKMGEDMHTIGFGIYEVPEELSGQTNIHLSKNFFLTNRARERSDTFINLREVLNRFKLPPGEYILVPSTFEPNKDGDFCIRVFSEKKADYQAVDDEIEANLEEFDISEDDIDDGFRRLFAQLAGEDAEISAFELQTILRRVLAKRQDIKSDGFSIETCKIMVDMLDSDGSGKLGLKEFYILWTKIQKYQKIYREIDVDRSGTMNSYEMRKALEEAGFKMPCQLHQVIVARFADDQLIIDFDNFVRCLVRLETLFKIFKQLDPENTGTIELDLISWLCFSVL
T1 sequence (P04632 1-268 partner): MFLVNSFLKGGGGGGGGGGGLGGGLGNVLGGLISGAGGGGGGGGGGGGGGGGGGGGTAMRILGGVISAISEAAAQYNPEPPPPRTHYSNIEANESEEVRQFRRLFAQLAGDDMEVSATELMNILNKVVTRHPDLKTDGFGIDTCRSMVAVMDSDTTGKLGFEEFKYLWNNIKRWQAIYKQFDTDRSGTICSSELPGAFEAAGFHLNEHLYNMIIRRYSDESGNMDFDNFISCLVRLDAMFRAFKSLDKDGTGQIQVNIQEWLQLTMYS
Procedure: (§1) The isocoumarins are irreversible inhibitors of Calpain. We obtained IC50 values for a variety of these Calpain Inhibitors as a kinetic analysis of these compounds.
(§2) Calpains I and II were purified by the method of (Yoshimura, et al. 1983). (Kitahara 1984) provides an alternative purification scheme. Calpain II may alternatively be purchased from Sigma Chemical Co. as "Calcium Activated Neutral Protease." In this assay, purified Calpain was incubated with ^14 C-methylated casein in the presence of various Heterocyclic Compounds and the amount of acid-soluble radioactivity released by the action of Calpain was measured.

[4] = biological target: T2, Calpain I (Homo sapiens, UniProt P07384); experiment: Calpain I 14C-methylated casein proteolysis (Table 1A); format: biochemical
T2 sequence (P07384 1-714): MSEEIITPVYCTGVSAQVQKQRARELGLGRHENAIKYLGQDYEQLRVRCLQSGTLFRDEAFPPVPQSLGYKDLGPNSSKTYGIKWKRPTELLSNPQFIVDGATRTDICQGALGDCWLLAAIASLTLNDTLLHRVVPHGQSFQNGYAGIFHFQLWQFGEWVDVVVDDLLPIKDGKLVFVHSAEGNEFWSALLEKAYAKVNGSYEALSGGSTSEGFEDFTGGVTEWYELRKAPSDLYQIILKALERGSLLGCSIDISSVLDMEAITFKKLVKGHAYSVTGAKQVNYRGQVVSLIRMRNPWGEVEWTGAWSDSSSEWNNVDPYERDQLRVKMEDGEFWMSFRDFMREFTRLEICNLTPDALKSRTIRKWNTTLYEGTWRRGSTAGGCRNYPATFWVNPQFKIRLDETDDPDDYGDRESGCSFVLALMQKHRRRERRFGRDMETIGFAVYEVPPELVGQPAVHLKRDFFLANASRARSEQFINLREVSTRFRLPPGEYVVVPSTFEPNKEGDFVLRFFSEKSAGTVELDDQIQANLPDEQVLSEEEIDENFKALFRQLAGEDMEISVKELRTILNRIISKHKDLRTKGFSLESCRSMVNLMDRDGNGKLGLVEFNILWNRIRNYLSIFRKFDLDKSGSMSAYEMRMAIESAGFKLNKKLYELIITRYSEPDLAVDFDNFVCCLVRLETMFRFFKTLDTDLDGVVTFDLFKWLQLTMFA
T2 sequence (P04632 1-268 partner): T1 sequence (P04632 1-268 partner)
Procedure: as §1, §2

[5] = biological target: T3, Calpain I from human erythrocytes (Homo sapiens, UniProt P07384); experiment: Calpain I Ki (Table 1B(i)); format: biochemical; details: Suc-Leu-Tyr-amidomethylcoumarin, HEPES pH 7.2
T3 construct: Calpain I from human erythrocytes and calpain II from rabbit were assayed using Suc-Leu-Tyr-AMC; from tissue; host or cells: human erythrocytes
T3 sequence (P07384 1-714): T2 sequence (P07384 1-714)
T3 sequence (P04632 1-268 partner): T1 sequence (P04632 1-268 partner)
Procedure: The Peptide Keto-Compounds are reversible inhibitors of Calpains and other thiol proteases. […] Cathepsin B from bovine spleen was assayed using Z-Lys-4-nitrophenylphosphate as substrate.
The Ki value for the inhibition of Calpains and cathepsin B by several Peptide Keto-Compounds are shown in μM (micromolar). The values for leupeptin, which is commercially available from Calbiochem of La Jolla, Calif., are shown for comparison.

[6] = tested on: Calpain in crude brain extracts; experiment: Ca2+-stimulated spectrin proteolysis in crude brain extracts (Example 2); format: biochemical; details: 100 μM
Summary of the method: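 Brain tissue was homogenized in 10 mM Tris pH 7.4, 0.32 M sucrose, 1 mM EGTA and 1 mM DTT, and nuclei and debris were removed. Calpain activity was scored as Ca^2+-stimulated proteolysis of endogenous spectrin.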

[7] = biological target: Cathepsin B (Bos taurus, UniProt P07688); experiment: Cathepsin B KI (Table 1B(ii)); format: biochemical; details: read-out: KI CathB
Description: (§3) We tested the ability of an additional group of Peptide Keto-Compounds to inhibit several proteases in order to evaluate their specificity for Calpain.

[8] = Stability in plasma; format: in vitro ADME; details: unit assumed
Description: (§4) We determined the haft-life of several Peptide Keto-Compounds in both plasma and liver homogenates.

[9] = Stability in liver homogenates; format: in vitro ADME; details: unit assumed
Description: as §4

[10] = biological target: Calpain II; experiment: Calpain II KI (Table 1B(ii)); format: biochemical
Description: as §3

[11] = biological target: T2, Calpain I; experiment: Calpain I KI (Table 1B(ii)); format: biochemical; details: for Ki: Table 1B(ii)
Description: as §3

[12] = biological target: PP Elastase (Sus scrofa, UniProt P00772); experiment: PP Elastase KI (Table 1B(ii)); format: biochemical
PP Elastase, sequence (P00772 27-266): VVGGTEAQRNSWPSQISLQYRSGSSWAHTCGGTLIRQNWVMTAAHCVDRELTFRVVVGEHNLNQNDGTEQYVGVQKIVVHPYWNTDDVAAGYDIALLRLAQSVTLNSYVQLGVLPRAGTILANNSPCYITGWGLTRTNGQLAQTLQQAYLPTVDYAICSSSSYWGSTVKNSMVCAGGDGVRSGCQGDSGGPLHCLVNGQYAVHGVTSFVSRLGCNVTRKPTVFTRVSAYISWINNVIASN
Description: as §3

[13] = tested on: rats with middle cerebral artery occlusion; experiment: MCA occlusion model (Example 6); format: in vivo, rat; details: infusion into femoral vein by 24 hr minipump; 24 hours after occlusion (FIG. 2)
Procedure: Male Sprague-Dawley albino rats weighing approximately 250-300 grams were anesthetized with pentobarbital (70 mg/kg, i.p.). The neck region was shaven and a 2 cm incision was made. The superficial fascia was teased away with tissue forceps and blunt tip tissue scissors using a spread method. The right common carotid artery was isolated away from the vagus nerve and tied off with a single suture (3.0 silk). The external carotid was permanently occluded by suturing. The bifurcation of the internal carotid and pterygopalatine arteries was exposed and a single microaneurysm clip was placed on the pterygopalatine. Another microaneurysm clip was placed on the common carotid just proximal to the external/internal bifurcation. A suture was placed loosely around the common carotid and a lumen was made in the vessel with the tip of a 25 g needle. A 40 mm nylon suture was prepared by melting the tip to smooth the pointed end and marked with a dot exactly 17.5 mm from the melted end. […]
Twenty-four hours after occlusion, the brains of these animals were removed and sliced into 2 mm sections. […] The sizes of the infarcted tissue zone ([…]) and impaired zone (area with partial development of red color) were evaluated using quantitative morphometry. […]

[14] = tested on: hippocampal slices; experiment: Hippocampal slice EPSP recovery from severe hypoxia (FIG. 5); format: cell-based, rat; details: one hour incubation
Procedure: These studies were performed in a manner similar to that of Example 7B, except using a hypoxic environment in place of the anoxia of Example 7B. […] The control slices experienced little or no recovery.

[15] = biological target: Chym (Bos taurus, UniProt P00766); experiment: Chym KI (Table 1B(ii)); format: biochemical
Description: as §3

CC(C)C[C@H](NC(=O)[C@H]1O[C@@H]1C(=O)O)C(=O)NCCCCN=C(N)N [Example E-64, E-64, reference compound]
effect on intracellular (platelet) Calpain ([1]; concentration not given): little effect
Kapp/[I] Calpain [2]: 7500

CC(C)(C)OC(=O)N[C@@H](Cc1ccccc1)C(=O)Nc1ccc2c(Cl)c(OCCCSC(=N)N)oc(=O)c2c1 [BOC-L-Phe-NH-CiTPrOIC, 7-(N-t-butyloxycarbonyl-L-phenylalanylamino)-4-chloro-3-(3-isothiureidopropoxy)isocoumarin]
IC50 [3]: > 200 µM
IC50 Calpain I [4]: no inhibition

COC(=O)C(=O)C(C)NC(=O)C(C)NC(=O)C(C)NC(=O)OCc1ccccc1 (stereo not drawn) [Z-Ala-Ala-Ala-CO2 Me]
Ki [5]: 200 µM

CC(=O)Nc1ccc2c(Cl)c(OCCCSC(=N)N)oc(=O)c2c1 [CH3 CONH-CiTPrOIC, 7-(acetylamino)-4-chloro-3-(3-isothiureidopropoxy)isocoumarin]
inhibition of Calpain within platelets [1]: significant inhibition
IC50 [3]: 80 µM
IC50 [4]: 700 µM
inhibition of spectrin proteolysis in crude brain extracts [6]: significant inhibition

CCOC(=O)[C@H]1O[C@@H]1C(=O)N[C@@H](CC(C)C)C(=O)NCCC(C)C [Example E64-d, Loxastatin]
Kapp/[I] Calpain [2]: 23000

CC(C)C[C@H](NC(=O)OCc1ccccc1)C(=O)N[C@@H](CC(C)C)C(=O)N[C@@H](Cc1ccc(O)cc1)C(=O)C=[N+]=[N-] [Z-leu-leu-tyr-CHN2] (HELM PEPTIDE1{[O=C(OCc1ccccc1)[*:2]].L.L.Y.[[N-]=[N+]=C[*:1]]}$$$$V2.0)
Kapp/[I] Calpain [2]: 230000

N=C(N)SCCCOc1oc(=O)c2cc(NC(=O)NCc3ccccc3)ccc2c1Cl [PhCH2 NHCONH-CiTPrOIC, 7-(benzylcarbamoylamino)-4-chloro-3-(3-isothiureidopropoxy)isocoumarin]
inhibition of Calpain within platelets [1]: significant inhibition
IC50 [3]: 30 µM
IC50 [4]: 80 µM
inhibition of spectrin proteolysis in crude brain extracts [6]: significant inhibition

CCNC(=O)C(=O)[C@H](Cc1ccccc1)NC(=O)[C@H](CC(C)C)NC(=O)OCc1ccccc1 [Z-Leu-Phe-CONHEt, Z-Leu-Phe-CONH-Et]
Ki [7]: 6 µM
t1/2 plasma [8]: > 1 h
t1/2 liver [9]: > 1 h
Ki [10]: 0.32 µM
Ki [11]: 7 µM
Ki [12]: > 150 µM
size of infarcted area [13]: reduction in the size of the infarcted area
IC50 [1]: 1.7 µM
percent recovery of EPSP from severe hypoxia (FIG. 5) [14]: ~100%
Ki [15]: 73 µM

CCNC(=O)C(=O)[C@H](CC)NC(=O)[C@H](CC(C)C)NC(=O)OCc1ccccc1 [Z-Leu-Abu-CONHEt, Z-Leu-Abu-CONH-Et]
Ki [7]: 2.4 µM
t1/2 plasma [8]: > 1 h
t1/2 liver [9]: > 1 h
Ki [10]: 0.23 µM
Ki [11]: 0.5 µM
better inhibitor of calpain I than Z-Leu-Phe-CONH-Et ([11]; ratio of KI values): 14 fold
Ki [12]: 65 µM
size of infarcted area [13]: reduction in the size of the infarcted area
IC50 [1]: 1.5 µM
Ki [15]: > 150 µM
